Type in all cases: physicochemical
Data set [1] is described as follows: Dissolution test of Test Example 1 (erlotinib, physiological saline). To be noted: physiological saline 100 mL, 25 degrees Celsius, 50 rpm. As to the method: An active pharmaceutical ingredient of erlotinib (1.6 mg) and the particle 9 (16 mg) obtained in Example 9 were each added to a physiological saline solution (0.9 w/v %) (100 mL) as a solvent, and were dissolved for 30 minutes under the following conditions: a temperature of the solution: 25 degrees Celsius; and a stirring rate: 50 rpm. Then, an amount of the pharmaceutical agent dissolved over time was quantified through liquid chromatography (detector: UV/Vis detector).

Data set [2] is described as follows: Solubility of the poorly water-soluble (pharmaceutical) compound, Table 1. To be noted: poorly-water-soluble compound (pharmaceutical compound) itself.
The nature of data set [3]: Dissolution test of Test Example 3 (ibuprofen, physiological saline). To be noted: physiological saline 100 mL, 25 degrees, 50 rpm. An excerpt:
Then, an amount of the pharmaceutical agent dissolved over time was quantified through liquid chromatography (detector: UV/Vis detector).

A short description of data set [4]: Dissolution test of Test Example 2 (imatinib, water). To be noted: water 100 mL, 25 degrees Celsius, 50 rpm. Here is the method: An active pharmaceutical ingredient of imatinib (7.35 mg) and the particle 10 (73.5 mg) obtained in Example 10 were each added to water (100 mL), and were dissolved for 30 minutes under the following conditions: a temperature of the solution: 25 degrees Celsius; and a stirring rate: 50 rpm. Then, an amount of the pharmaceutical agent dissolved over time was quantified through liquid chromatography (detector: UV/Vis detector).

In brackets after ≈: the same amount, converted by molar mass.

With `C#Cc1cccc(Nc2ncnc3cc(OCCOC)c(OCCOC)cc23)c1` [Erlotinib, erlotinib], the Dissolution amount entry is on record as “Not detected” in data set [1] (1 min); 0.8 mg/mL in data set [1] (3 min); 1 mg/mL in data set [1] (5 min); 1.1 mg/mL in data set [1] (15 min); 2 mg/mL in data set [1] (30 min).
In turn, `CC(C)Cc1ccc(C(C)C(=O)O)cc1` (stereo not drawn) [Ibuprofen, ibuprofen] registered a solubility in data set [2] of 20 µg/mL (≈ 97 µM). Also, the Dissolution amount entry in data set [3] (2 min) is listed as “Not detected”; in data set [3] (5 min), “Not detected”; in data set [3] (15 min), 5.4 mg/mL; in data set [3] (30 min) it was 9.7 mg/mL.
As for `Cc1ccc(NC(=O)c2ccc(CN3CCN(C)CC3)cc2)cc1Nc1nccc(-c2cccnc2)n1` [Imatinib, imatinib], the Dissolution amount is reported as 9.7 mg/mL in data set [4] (1 min); 13.4 mg/mL in data set [4] (3 min); 18 mg/mL in data set [4] (5 min); 19.8 mg/mL in data set [4] (15 min); 13.7 mg/mL in data set [4] (30 min).
